Positions of bridges follow the written chain, without caps; N, C: chain ends.

Test [1] concerns beta1-receptor antibodies. Nature of the test: in vivo prevention study: five prophylactic peptide applications, serum antibody-titers by ELISA. Details: species or system rat. The conditions noted are these: 1.0 mg/kg body weight i.v., 4-weekly, prevention protocol (FIG. 12). The method, boiled down:
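Immunized, antibody-positive rats got 1.0 mg/kg i.v. peptide five times at 4-week intervals from month 3, two weeks after each monthly antigen boost. Sera were taken before and 18-20 h post-injection and tested by ELISA against the linear 25AA Cys/Cys peptide. Titers are % of untreated regularly immunized rats.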
For orientation: In an ELISA, binding on a coated surface is turned into a signal by an enzyme label.

For test [2], the system named is rats with antibody-induced immune-cardiomyopathy. Nature of the test: in vivo therapy study: cardioprotective effect (echocardiography, hemodynamics, organ weights). Details: species or system rat. The text has this: FIG. 17.A is a diagram showing the time course (month 0 to 20) of the internal end-systolic and end-diastolic left ventricular diameters (LVES, LVED) of GST/β1-ECII-immunized un-treated (black circles) versus GST/β1-ECII-immunized animals treated with the indicated various cyclopeptides (see legend) as determined by echocardiography (echocardiographic system: Visual Sonics, Vevo 770 (version V2.2.3), equipped with a 15-17.5 MHz transducer), whereby LVES/LVED is left ventricular end-systolic diameter/left ventricular end-diastolic diameter.
FIG. 17.B is a similar diagram showing the time course (month 0 to 20) of the internal end-systolic and end-diastolic left ventricular diameters (LVES, LVED) of GST/β1-ECII-immunized untreated (black circles) versus GST/β1-ECII-immunized animals, treated with different concentrations of the 18AA Cys/Ser cyclopeptide mutant (see legend).
FIG. 19A is a diagram depicting the time course (month 0 to 20) of the “Cardiac index” (CI) in ml/min/g (body weight) as determined by echocardiography (echocardiographic system see legend to FIG. 17a.).
The latter doses were almost equally efficient in terms of both, neutralization of circulating receptor antibodies (FIGS. 16b and c), and reversal of antibody-induced cardiomyopathic features (FIGS. 17b, 19b, 20, and 21b).

The subject of test [3] is anti-beta1-ECII antibody-secreting cells (ASC). Nature of the test: ELISPOT-assay with B-cells from bone marrow or spleen of prophylactically treated rats. It counts as in vivo, rat. The note with it: prophylactically treated versus untreated immunized rats, n=3-4 (FIG. 13). On the procedure: Cys/Ser, horizontally hatched columns). For the assays, ELIspot plates were coated overnight with the specific antigen (GST/beta1-ECII-FP) in 0.05 mol/1 Tris buffer, pH 9.4.; then the plates were washed 3 times and blocked with BSA for 3 hours at 37° C. Subsequently, the plates were incubated overnight at 37° C. with B-cells from either spleen or bone marrow (cultured in RPMI 1640/X-VIVO-15 medium supplemented with 10% fetal calf serum (FCS)) with 1×10^6 to 1×10^3 cells per well. After 12 hours the B-cells were discarded and the plates with the B-cell secreted IgG bound were washed several times (PBS/0.5° A) Tween) before the addition of alkaline phos-phatase conjugated secondary anti-rat IgG (0.3 μg/ml) to detect bound rat IgG. Then the plates were incubated for another 3 hours at 37° C., washed several times with PBS/0.5% Tween, and developed using LMP/BICP 5:1 (1 ml per well; “LMP” means low melting agarose, and “BICP” means 5-bromo-4-chloro-3-indolyl phosphate p-toluidine salt, a blue-colored dye) allowing for a quantification of the blue spots obtained, with each spot representing an antigen-specific IgG secreting spleen or bone-marrow cell.
This finding was confirmed by ELIspot analysis of bone marrow and spleen cell preparations of selected cyclopeptide-treated versus untreated immunized rats (n=3).

On to “Cyclo-Ala-Asp-Glu-Ala-Arg-Arg-Cys-Tyr-Asn-Asp-Pro-Lys-Cys-Ser-Asp-Phe-Val-Gln (cyclo(ADEARRCYNDPKCSDFVQ); disulfide 7-13; SMILES CC(C)[C@@H]1NC(=O)[C@H](Cc2ccccc2)NC(=O)[C@H](CC(=O)O)NC(=O)[C@H](CO)NC(=O)[C@@H]2CSSC[C@H](NC(=O)[C@H](CCCNC(=N)N)NC(=O)[C@H](CCCNC(=N)N)NC(=O)[C@H](C)NC(=O)[C@H](CCC(=O)O)NC(=O)[C@H](CC(=O)O)NC(=O)[C@H](C)NC(=O)[C@H](CCC(N)=O)NC1=O)C(=O)N[C@@H](Cc1ccc(O)cc1)C(=O)N[C@@H](CC(N)=O)C(=O)N[C@@H](CC(=O)O)C(=O)N1CCC[C@H]1C(=O)N[C@@H](CCCCN)C(=O)N2) [18AA Cys/Ser mutant (Gln-)cyclopeptide, disulphide bond Cys7-Cys13, ring closure Ala1-Gln18]”, for which, in test [1], the “antibody-titer decrease after 5 injections, compared with untreated immunized animals” value was determined as 54.5±2%. In addition, in test [2] (0.25 mg/kg Bw, repeated injections every 4 weeks), the “achieved cardioprotective effect compared with 1.0 or 2.0 mg/kg” value is “clearly less efficient”. Also, in test [2] (4.0 mg/kg body weight, repeated injections every 4 weeks), the “cardioprotective effects compared with 1.0 or 2.0 mg/kg” value is “did not result in higher efficiency”. The “reversal of antibody-induced cardiomyopathic features” value in test [2] (1.0 or 2.0 mg/kg Bw (FIGS. 17B, 19B, 20, 21B)) is recorded as “best cardioprotection”. The “number of specific anti-beta1-ECII antibody-secreting cells (ASC) in spleen and bone marrow” value in test [3] is “significant decrease”.

Values taken from US9062095B2, “Mutant double cyclized receptor peptides inhibiting β1-adrenoceptor antibodies” (JULIUS-MAXIMILIANS-UNIVERSTITAT-WURZBURG, priority 2007, dated 2015).
